Experimental data from patent publication US12227713B2, “Polysiloxane hydraulic fluids” (THE BOEING COMPANY, priority 2016, dated 2025).

Assay: Viscosity (ASTM D445)
Assay type: physicochemical
Description: The viscosity may be determined using the protocol in ASTM D445, and for example ASTM D445FL1 for low temperature measurements.

Row | SMILES | 38 C. Viscosity (cP) | Room Temp (25 C.) Viscosity (cP) | −54 C. Viscosity (cP)
1 | CCCCCCCCCCP(=O)(OCC)OCC [DiEthyl Decane Phosphonate (AP28), DiEthyl Decane Phosphonate] | 4.89 ± 0.01 cP | 7.02 ± 0.04 cP | Frozen <3 hr
2 | CCCCCCCCCCP(=O)(OCCCC)OCCCC [DiButyl Decane Phosphonate (AP32), DiButyl Decane Phosphonate] | 4.91 ± 0.01 cP | 6.97 ± 001 cP | 706.2 ± 5.4 cP
